In patent US20260200926A1, “TREM2 MODULATORS” (Muna Therapeutics ApS, priority 2022, published 2026):
pEC50: −log10 of the molar value. Where two headings read alike, the source gives them in different places.

Biological target: T1, Human TREM2 (Homo sapiens, UniProt Q9NZC2)
T1 construct: expressed in transfected cells
Assay: Human TREM2 activity: cellular phosphorylation of Syk (AlphaLISA SureFire Ultra p-SYK) in HEK293/DAP12+TREM2 stable cell line
Type: cell-based
Settings: for Emax: maximal response relative to reference agonist example 1B (remaining examples); for pEC50: phospho-Syk AlphaLISA signal, HEK293/DAP12+TREM2 cells, concentration giving 50% of maximal response, read-out: EC50
Excerpt: Human TREM2, in vitro Measurement of Triggering Receptor Expressed on Myeloid Cells 2 activity using cellular phosphorylation of Spleen Tyrosine Kinase (“Syk”) Assay
HEK-293 cells were co-transfected with separate plasmids encoding TREM2 and DAP12 to generate a stable cell line. After antibiotic selection, functional clone pool analysis and two successive limiting dilutions, the final clone “HEK293/DAP12+TREM2” underwent a qPCR analysis and a pharmacological validation.
TREM2 signaling through DAP12 was monitored in the HEK293/DAP12+TREM2 stable cell line by measuring the phosphorylation levels of the Syk kinase using the commercially available AlphaLISA SureFire Ultra p-SYK (Tyr525/526) Assay Kit (PerkinElmer #ALSU-PSYK), based on the Perkin Elmer AlphaScreen/AlphaLISA technology.
Compounds are transferred to the test plate and tested in full dose response, 8 concentrations in quadruplicate data points. Compound serial dilutions were performed at Cybi-Felix instrument in 100% DMSO and the dose response curves were assembled in automated fashion in 384MPT at Hamilton STARlet instrument. All the stock solutions were prepared at 20 mM in 100% DMSO. For compounds testing, the starting concentration was 100 μM, dilution steps 1:6. […] Finally, a 384MPT reformatted for all compounds at 8 concentrations, quadruplicates, was used as “mother to child” process with a CyBi®-Well dispenser in which 1 μL of each compound was moved into a destination plate pre-filled with 65.6 μL of EMEM cell culture medium (BIOWHITTAKER_cat.BE12-125F), thus obtaining 3× concentrated compounds working solution. In columns 1-2 and 23-24 the control wells were added. In particular, dose response curves of a reference control agonist were included in column 1 and 24 as reference control agonist (Reference control agonists used include Human TREM2 polyclonal Antibody AF1828: R&D Systems; Human TREM2 monoclonal Antibody MAB1828: R&D Systems). The dose response curves were tested starting at 30 μM, dilution step 1:6. Both “source” compound plate and “destination” compound plate were barcoded and a relationship between the two plates was thus generated.
HEK293/DAP12+TREM2 cells were cultured in EMEM medium supplemented with IX Penicillin/Streptomycin (BIOWHITTAKER_cat.DE17-602E), ULTRAGLUTAMINE I 200 mM, 10% Fetal Bovine Serum plus antibiotics referred to as “HEK293 Culture Medium”. The day before the experiment, cells were detached by gentle wash with DPBS, followed by 5 min incubation at 37° C. with Trypsin solution. Cells were then diluted in HEK293 Culture Medium without antibiotics, counted and seeded into 384-well poly-D-Lysine coated microplates black/clear bottom (GREINER 781946) at a density of 10,000 cells/well in 25 μL/well by the use of a MATRIX WellMate dispenser. Plates were placed into a humidified cell culture incubator at 37° C. with 5% CO2 until the experimental day. 20-24 hours after seeding mature medium was removed and replaced with 10 μL/well of EMEM cell medium supplemented with 0.1% Pluronic F-68 non-ionic surfactant (Thermofisher, 24040032), referred to as “Assay Buffer”, using the CyBi®-Well instrument. Then 5 μL/well of Assay Buffer containing 3× concentrated test compounds or the reference control agonist (in 0.5% final DMSO concentration) were added to the cells with the CyBi®-Well instrument. Cell plates were incubated for 30 min into a humidified cell culture incubator at 37° C. with 5% CO2·, then the medium was removed by manually discard. 20 μL/well of lysis buffer were dispensed using the CyBi®-Well instrument and plates were incubated for 10 min at room temperature on a plate shaker (350 rpm). Then, 10 μL/well of lysate were transferred to the Alpha plates. The CyBi®-Well instrument was used to dispense 5 μL/well of AlphaLISA Acceptor Bead Solution in IX Immunoassay buffer (Perkin Elmer AL000F). Then the plates were sealed with Heat sealing foil, shaked for 2 minutes (350 rpm) and incubated for 1 hour at room temperature.

T1 sequence (Q9NZC2 19-230): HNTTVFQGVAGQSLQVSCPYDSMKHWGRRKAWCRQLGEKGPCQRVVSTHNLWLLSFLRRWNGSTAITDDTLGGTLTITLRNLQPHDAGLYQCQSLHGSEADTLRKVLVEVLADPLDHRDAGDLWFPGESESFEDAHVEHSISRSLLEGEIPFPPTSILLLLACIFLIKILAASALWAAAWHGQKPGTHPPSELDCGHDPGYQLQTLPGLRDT
T1 sequence (O43914 22-113 partner): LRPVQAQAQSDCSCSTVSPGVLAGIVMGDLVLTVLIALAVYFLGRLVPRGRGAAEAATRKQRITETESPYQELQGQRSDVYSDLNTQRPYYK

| SMILES | Emax (HEK293, read-out: Emax) | pEC50 | Emax |
| --- | --- | --- | --- |
| Cc1nc2c(-c3ccc(Cl)cc3F)nc(N3C[C@H](c4cnn(C)c4)OC4(CCC4)C3)nc2c(=O)n1C (single isomer, unassigned) [Example 109B] | < 75% | 6.00 to 7.00 | – |
| Cc1nc2c(-c3ccc(C(F)(F)F)cc3F)nc(N3C[C@H](c4cnn(C)c4)OC4(CCC4)C3)cc2c(=O)n1C (single isomer, unassigned) [Example 143B] | < 75% | 6.00 to 7.00 | – |
| Cc1cc([C@H]2CN(c3cc4c(=O)n(C)c(C)nc4c(-c4ccc(Cl)cc4F)n3)CCO2)ccn1 (single isomer, unassigned) [Example 135B] | 75 to 110% | 6.00 to 7.00 | – |
| Cc1nc2c(-c3cc(F)c(F)cc3F)nc(N3CCO[C@H](c4cnn(C5CC5)c4)C3)cc2c(=O)n1C (single isomer, unassigned) [Example 133A] | 75 to 110% | 7.00 to 8.00 | – |
| Cc1nc2c(-c3ccc(Cl)cc3F)nc([C@H]3C[C@@H](c4cnn(C)c4)OC(C)(C)C3)nc2c(=O)n1C (single isomer, unassigned) [Example 111A] | 75 to 110% | 7.00 to 8.00 | – |
| Cc1cc([C@H]2CN(c3nc(-c4ccc(F)cc4F)c4nc(C)n(C)c(=O)c4n3)CC(F)(F)O2)ccn1 (single isomer, unassigned) [Example 169B] | 75 to 110% | 7.00 to 8.00 | – |
| Cc1nc2c(-c3ccc(C(F)(F)F)nc3)nc([C@@H]3CCO[C@H](c4cnn(C5CC5)c4)C3)nc2c(=O)n1C (single isomer, unassigned) [Example 98A] | < 75% | 7.00 to 8.00 | – |
| Cc1nc2c(-c3ccc(C(F)F)nc3)nc(N3C[C@@H](c4cnn(C5CC5)c4)O[C@@H](C)C3)cc2c(=O)n1C (single isomer, unassigned) [Example 194A] | 75 to 110% | 7.00 to 8.00 | – |
| Cc1nc2c(-c3ccc(Cl)cc3F)nc(N3CCO[C@@H](c4cnn(C5CC5)c4)C3)cc2c(=O)n1C (single isomer, unassigned) [Example 131B] | < 75% | 6.00 to 7.00 | – |
| Cc1nc2c(-c3ccc(F)cc3F)nc(N3C[C@@H](C)O[C@@H](c4cnn(C5CC5)c4)C3)cc2c(=O)n1C (single isomer, unassigned) [Example 190B] | < 75% | 6.00 to 7.00 | – |
| Cc1cc([C@@H]2CN(c3cc4c(=O)n(C)c(C)nc4c(-c4ccc(F)cc4F)n3)C[C@H](C)O2)ccn1 (single isomer, unassigned) [Example 182A] | > 110% | 8.00 to 9.00 | – |
| Cc1cc([C@H]2CN(c3nc(-c4ccc(F)cc4F)c4nc(C(F)(F)F)n(C)c(=O)c4n3)CCO2)ccn1 (single isomer, unassigned) [Example 154B] | 75 to 110% | 7.00 to 8.00 | – |
| Cc1nc2c(-c3ccc(C#N)cc3F)nc(N3C[C@@H](C)O[C@@H](c4cnn(C5CC5)c4)C3)cc2c(=O)n1C (single isomer, unassigned) [Example 200B] | 75 to 110% | 7.00 to 8.00 | – |
| Cc1nc2c(-c3ccc(Cl)cc3F)nc(N3CCO[C@H](c4cnn(C(F)(F)F)c4)C3)nc2c(=O)n1C (single isomer, unassigned) [Example 107A] | 75 to 110% | 7.00 to 8.00 | – |
| Cc1cc([C@H]2CN(c3nc(-c4ccc(C(F)(F)F)nc4)c4nc(C)n(C)c(=O)c4n3)CC(C)(C)O2)ccn1 (single isomer, unassigned) [Example 164B] | < 75% | 8.00 to 9.00 | – |
| Cc1nc2c(-c3ccc(Cl)cc3F)nc(N3C[C@H](c4cnn(C)c4)OC4(CC4)C3)c(F)c2c(=O)n1C (single isomer, unassigned) [Example 173B] | < 75% | 7.00 to 8.00 | – |
| Cc1nnc(C2CN(c3nc(-c4ccc(Cl)cc4F)c4nc(C)n(C)c(=O)c4n3)CCO2)o1 (stereo not shown) [Example 43, 8-(4-chloro-2-fluorophenyl)-2,3-dimethyl-6-(2-(5-methyl-1,3,4-oxadiazol-2-yl)morpholino)pyrimido[5,4-d]pyrimidin-4(3H)-one] | < 75% | 7.00 to 8.00 | – |
| Cc1nc2c(-c3ccc(Cl)cc3F)nc(N3C[C@@H](c4cnn(C)c4)OC4(CC4)C3)nc2c(=O)n1C (single isomer, unassigned) [Example 108A] | 75 to 110% | 8.00 to 9.00 | – |
| Cc1nc2c(-c3ccc(C(F)(F)F)cc3F)nc(N3C[C@@H](C)O[C@@H](c4cnn(C5CC5)c4)C3)nc2c(=O)n1C (single isomer, unassigned) [Example 195B] | 75 to 110% | > 9.00 | – |
| Cc1cc([C@@H]2CN(c3cc4c(=O)n(C)c(C(F)(F)F)nc4c(-c4ccc(F)cc4F)n3)C[C@H](C)O2)ccn1 (single isomer, unassigned) [Example 189A] | 75 to 110% | 7.00 to 8.00 | – |
| Cc1nc2c(-c3ccc(F)cc3Cl)nc(N3CCOC(c4cnn(C)c4)C3)nc2c(=O)n1C (stereo not shown) [Example 70, 8-(2-chloro-4-fluorophenyl)-2,3-dimethyl-6-(2-(1-methyl-1H-pyrazol-4-yl)morpholino)pyrimido[5,4-d]pyrimidin-4 (3H)-one] | < 75% | < 6.00 | – |
| Cc1nc2c(-c3ccc(Cl)cc3F)nc(N3CCC[C@H](Oc4cnn(C)c4)C3)nc2c(=O)n1C [Example 75, (S)-8-(4-chloro-2-fluorophenyl)-2,3-dimethyl-6-(3-((1-methyl-1H-pyrazol-4-yl)oxy)piperidin-1-yl)pyrimido[5,4-d]pyrimidin-4 (3H)-one] | < 75% | 6.00 to 7.00 | – |
| Cn1cc(C2CN(c3nc(-c4ccc(Cl)cc4F)c4ncn(C)c(=O)c4n3)CCO2)cn1 (stereo not shown) [Example 187, 8-(4-chloro-2-fluorophenyl)-3-methyl-6-(2-(1-methyl-1H-pyrazol-4-yl)morpholino)pyrimido[5,4-d]pyrimidin-4 (3H)-one] | < 75% | 7.00 to 8.00 | – |
| Cc1nc2c(-c3ccc(Cl)cc3F)nc([C@H]3CCO[C@@H](c4cnn(C5CC5)c4)C3)nc2c(=O)n1C (single isomer, unassigned) [Example 24B] | < 75% | 6.00 to 7.00 | – |
| Cc1nc2c(-c3ccc(F)cc3F)nc(N3C[C@@H](c4cnn(C)c4)OC(F)(F)C3)cc2c(=O)n1C (single isomer, unassigned) [Example 166A] | 75 to 110% | 8.00 to 9.00 | – |
| Cn1c(C(F)(F)F)nc2c(-c3cc(F)c(F)cc3F)nc([C@H]3CCO[C@@H](c4cnn(C5CC5)c4)C3)nc2c1=O (single isomer, unassigned) [Example 186B] | < 75% | 6.00 to 7.00 | – |
| Cc1nc2c(C3CCC(C)CC3)nc(N3CCOC(c4cnn(C)c4)C3)nc2c(=O)n1C (stereo not shown) [Example 12b, 2,3-dimethyl-6-(2-(1-methyl-1H-pyrazol-4-yl)morpholino)-8-((1r,4r)-4-methylcyclohexyl)pyrimido[5,4-d]pyrimidin-4 (3H)-one] | – | 6.00 to 7.00 | ++ (75-110%) |
| Cc1nc2c(-c3ccc(Cl)cc3F)nc(N3CCC[C@@H](Oc4cnn(C)c4)C3)nc2c(=O)n1C [Example 76, (R)-8-(4-chloro-2-fluorophenyl)-2,3-dimethyl-6-(3-((1-methyl-1H-pyrazol-4-yl)oxy)piperidin-1-yl)pyrimido[5,4-d]pyrimidin-4 (3H)-one] | 75 to 110% | 6.00 to 7.00 | – |
| Cc1nc2c(-c3ccc(Cl)cc3F)nc(N3CCOC(CN(C)C)C3)nc2c(=O)n1C (stereo not shown) [Example 53, 8-(4-chloro-2-fluorophenyl)-6-(2-((dimethylamino)methyl)morpholino)-2,3-dimethylpyrimido[5,4-d]pyrimidin-4(3H)-one] | 75 to 110% | 6.00 to 7.00 | – |
